Where two headings read alike, the source gives them in different places.
Assays:
TTR (transthyretin) = TTR (transthyretin) (Homo sapiens, UniProt P02766); experiment: percent inhibition of radiolabelled T4 binding to TTR (procedure of R. Somack et al.); details: for inhibition at 10 µM: read-out: ~% T4 (percent inhibition of radiolabelled T4 binding to TTR); for inhibition at 1 µM: [I] 1 uM
Source text: Results are set forth in the following table, wherein "%T4 " represents the percent inhibition of radiolabelled T4 binding to TTR".

[1] = cited from earlier work
human astrocytoma cells = details: C. M. Divino et al. 1990; cited from earlier work

Molecule	inhibition at 10 µM (TTR (transthyretin); [I] 10 uM)	further results
CC(C)(C)OC(=O)NCCCCCCNC(=O)Cc1cc(I)c(O)c(I)c1	~40%	
NCCCCCCNC(=O)Cc1cc(I)c(O)c(I)c1	~15%	
NCCOCCOCCNC(=O)Cc1cc(I)c(O)c(I)c1	~25%	
superoxide dismutase		half-life ([1]; unconjugated, G. D. Mao et al. 1989): five
Oc1c(I)cc(I)cc1I		inhibition at 10 µM (TTR (transthyretin)): ~90%
OCCc1cc(I)c(O)c(I)c1	~85%	
O=C(O)Cc1cc(I)c(Oc2cc(I)c(O)c(I)c2)c(I)c1	~90%	
OCc1cc(I)c(O)c(I)c1		inhibition at 1 µM (TTR (transthyretin)): ~70%
CC(C)(C)OC(=O)NCCOCCOCCNC(=O)Cc1cc(I)c(O)c(I)c1	~45%	
O=C(O)c1ccc(-c2cc(I)c(O)c(I)c2)cc1		inhibition at 1 µM (TTR (transthyretin)): ~80%
O=C(Cc1cc(I)c(O)c(I)c1)OCC#CCO	~90%	
O=C(O)CCc1cc(I)c(O)c(I)c1	~80%	
transthyretin		binding to cell sites (human astrocytoma cells): binds to specific high affinity sites on human astrocytoma cells; t1/2 ([1]; up to about): up to two
O=C(O)Cc1cc(I)c(O)c(I)c1	~70%	

— patent US5714142A, “Method and compositions for increasing the serum half-life of pharmacologically active agents by binding to transthyretin-selective ligands” (priority 1996, dated 1998)
